According to patent publication US20100216785A1, “PHARMACEUTICAL COMPOSITIONS” (NEUROSCIENZE PHARMANESS S.C. A.R.L., priority 2009, published 2010):

Target: T1, CB2 cannabinoidergic receptors (Mus musculus, UniProt P47936)
T1 construct: the complete brain (excluding the cerebellum) and the spleen were quickly dissected and kept in ice; from tissue; host or cells: mouse spleen membranes
Assay: Radioreceptor binding, displacement of [3H]-CP-55,940, CB2 receptors (mouse spleen membranes)
Conditions: 1 nM [3H]-CP55,940, 1 hour at 30° C.
Protocol: (§1) The affinity of the compounds towards the CB1 and CB2 cannabinoidergic receptors was evaluated in vitro by radioreceptor binding studies using the following method.
(§2) The technique of the receptor binding allows to establish if, and with which affinity and specificity, a specific compound binds to a particular receptor. To evaluate the affinity of a specific compound to a particular receptor it is necessary to challenge in a particular tissue preparation wherein those specific receptors are present the compound to be tested with a radioactive labelled compound whose affinity for the same receptors is known. […] The amount of radioactivity present in the receptor-compound complex allows furthermore to stimate with great accuracy the amount of compound bound to the receptor. By said method it is therefore possible to stablish quickly the affinity of a new compound towards a specific receptor and thus to determine its pharmacological activity. […]
(§3) The thus obtained membranes (50-80 μg of proteins) were incubated in the presence of 1 nM of [^3H]-CP55.940 for 1 hour at 30° C. in a final volume of 0.5 ml of TME buffer containing 5 mg/ml of bovine serum albumin (BSA). The non specific binding was measured in the presence of CP55.940 at a 1 μM concentration. […]
(§4) The radioactivity present in the filters was determined by a scintillator spectrophotometer (Tricarb® 2100, Packard, Meridien, USA). […]

T1 sequence (P47936 whole entry): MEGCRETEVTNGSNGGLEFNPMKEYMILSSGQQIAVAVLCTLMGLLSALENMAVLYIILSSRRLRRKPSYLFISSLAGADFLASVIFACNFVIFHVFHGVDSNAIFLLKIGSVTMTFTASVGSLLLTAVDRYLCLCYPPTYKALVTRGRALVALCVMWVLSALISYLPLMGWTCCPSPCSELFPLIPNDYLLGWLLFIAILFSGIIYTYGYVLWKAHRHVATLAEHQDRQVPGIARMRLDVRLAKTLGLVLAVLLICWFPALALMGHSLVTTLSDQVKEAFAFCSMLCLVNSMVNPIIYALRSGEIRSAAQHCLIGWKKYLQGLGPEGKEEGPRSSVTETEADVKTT

| SMILES | Ki [µM] |
| --- | --- |
| Cc1ccc2c(c1)oc1c(C(N)=O)nn(-c3ccc(Cl)cc3Cl)c12 [1-(2,4-dichlorophenyl)-6-methyl-1H-benzofuro[3,2-c]pyrazole-3-carboxamide] | > 3 |

Tested on: not given
Assay: not given
Conditions: not given

| melting point [°C] | SMILES |
| --- | --- |
| 90 to 92 | Cc1ccc2c(c1)oc1c(C(=O)NN3CCCC3)nn(-c3ccc(Cl)cc3Cl)c12 [Example 3.21, N-pirrolidinyl-1-(2,4-dichlorophenyl)-6-methyl-1H-benzofuro[3,2-c]pyrazole-3-carboxamide] |
| 178 to 180 | Cc1ccc2c(c1)oc1c(C(=O)NN3CCOCC3)nn(-c3ccc(Cl)cc3Cl)c12 [Example 3.22, N-morpholin-4yl-1-(2,4-dichlorophenyl)-6-methyl-1H-benzofuro[3,2-c]pyrazole-3-carboxamide] |
| 140 to 142 | Cc1ccc2c(c1)oc1c(C(=O)NC3CCCCC3)nn(-c3ccc(Cl)cc3Cl)c12 [Example 3.23, N-cyclohexyl-1-(2,4-dichlorophenyl)-6-methyl-1H-benzofuro[3,2-c]pyrazole-3-carboxamide] |
| 70 to 72 | Cc1ccc2c(c1)oc1c(C(=O)N[C@H]3C[C@@H](C)CC[C@@H]3C(C)C)nn(-c3ccc(Cl)cc3Cl)c12 [Example 3.24, N-2-isopropyl-5-methyl-cyclohexyl-1-(2,4-dichlorophenyl)-6-methyl-1H-benzofuro[3,2-c]pyrazole-3-carboxamide] |
| 85 to 87 | Cc1ccc2c(c1)oc1c(C(=O)N[C@@H]3C[C@H]4C[C@@H]([C@@H]3C)C4(C)C)nn(-c3ccc(Cl)cc3Cl)c12 [Example 3.25, N-2,6,6-trimethyl-bicyclo[3.1.1]hept-3yl-1-(2,4-dichlorophenyl)-6-methyl-1H-benzofuro[3,2-c]pyrazole-3-carboxamide] |
| 84 to 86 | Cc1ccc2c(c1)oc1c(C(=O)NC3C4(C)CCC(C4)C3(C)C)nn(-c3ccc(Cl)cc3Cl)c12 (stereo not drawn) [Example 3.26, N-1,3,3-trimethyl-bicyclo[2.2.1]hept-2yl-1-(2,4-dichlorophenyl)-6-methyl-1H-benzofuro[3,2-c]pyrazole-3-carboxamide] |
| 78 to 80 | Cc1ccc2c(c1)oc1c(C(=O)NC3CC4CCC3(C)C4(C)C)nn(-c3ccc(Cl)cc3Cl)c12 (stereo not drawn) [Example 3.27, N-1,7,7-trimethyl-bicyclo[2.2.1]hept-2yl-1-(2,4-dichlorophenyl)-6-methyl-1H-benzofuro[3,2-c]pyrazole-3-carboxamide] |
| 210 to 212 | Cc1ccc2c(c1)oc1c(C(=O)NC34CC5CC(CC(C5)C3)C4)nn(-c3ccc(Cl)cc3Cl)c12 [Example 3.28, N-adamantan-1yl-1-(2,4-dichlorophenyl)-6-methyl-1H-benzofuro[3,2-c]pyrazole-3-carboxamide] |
| 209 to 211 | Cc1ccc2c(c1)oc1c(C(=O)NC3C4CC5CC(C4)CC3C5)nn(-c3ccc(Cl)cc3Cl)c12 (stereo not drawn) [Example 3.29, N-adamantan-2yl-1-(2,4-dichlorophenyl)-6-methyl-1H-benzofuro[3,2-c]pyrazole-3-carboxamide] |

| SMILES | melting point [°C] |
| --- | --- |
| Cc1ccc2c(c1)oc1c(C(N)=O)nn(-c3ccc(Cl)cc3Cl)c12 [1-(2,4-dichlorophenyl)-6-methyl-1H-benzofuro[3,2-c]pyrazole-3-carboxamide] | 185 to 186 |

Target: T2, CB1 cannabinoidergic receptors (Mus musculus, UniProt P47746)
T2 construct: the complete brain (excluding the cerebellum) and the spleen were quickly dissected and kept in ice; from tissue; host or cells: mouse brain (excluding the cerebellum) membranes
T2 sequence (P47746 whole entry): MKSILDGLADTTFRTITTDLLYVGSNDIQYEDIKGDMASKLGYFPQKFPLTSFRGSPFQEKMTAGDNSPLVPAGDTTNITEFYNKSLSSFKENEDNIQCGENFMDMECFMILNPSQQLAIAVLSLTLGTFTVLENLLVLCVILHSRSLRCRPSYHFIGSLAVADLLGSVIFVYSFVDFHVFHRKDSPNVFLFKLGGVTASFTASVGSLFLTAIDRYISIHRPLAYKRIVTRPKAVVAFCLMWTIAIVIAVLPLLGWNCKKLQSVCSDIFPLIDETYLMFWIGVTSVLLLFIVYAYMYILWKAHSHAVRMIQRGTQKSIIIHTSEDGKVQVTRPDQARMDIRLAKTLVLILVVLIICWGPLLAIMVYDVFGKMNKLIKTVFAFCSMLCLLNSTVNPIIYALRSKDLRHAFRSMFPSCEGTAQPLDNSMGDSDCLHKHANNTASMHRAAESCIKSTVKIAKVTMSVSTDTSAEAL
Assay: Radioreceptor binding, displacement of [3H]-CP-55,940, CB1 receptors (mouse brain membranes)
Conditions: not given
Protocol: as §1, §2, §3, §4

| SMILES | Ki [µM] |
| --- | --- |
| Cc1ccc2c(c1)oc1c(C(N)=O)nn(-c3ccc(Cl)cc3Cl)c12 [1-(2,4-dichlorophenyl)-6-methyl-1H-benzofuro[3,2-c]pyrazole-3-carboxamide] | > 3 |
